From patent US12409192B2, “Traditional Chinese medicine composition and use thereof” (JIANGSU KANION PHARMACEUTICAL CO., LTD, priority 2021, dated 2025) come the findings set out here.

The test deals with fever induced by dry yeast in rats. In words: Dry yeast-induced fever in rats. Conditions: composition 3.34 g crude drugs/kg, aspirin 0.20 g/kg, X ± SD, n = 10. The class given is in vivo. The procedure:
Male SD rats, weighing 180-220 g were fed adaptively for 1 week, with the environmental temperature maintained at 20-25° C. The rectal temperature of the rats was measured once daily at 10:00 am for two consecutive days to acclimate them to this procedure. The average of the two temperature measurements was taken as the baseline temperature. Rats with a temperature range of 37.0-38.6° C. and a fluctuation <0.5° C. were selected for the experiment. Each rat was subcutaneously injected with 10 ml/kg of a 20% suspension of dry yeast to induce fever. (Preparation method: 120 g of dry yeast was weighed and placed in a mortar, gradually adding distilled water to grind into a uniform suspension, and then adjusted to a volume of 600 mL, prepare this solution fresh.) Six hours after injecting the yeast suspension, the body temperature of the rats was measured. One hundred and seventy rats with a temperature increase ranging from 1.0 to 2.2 degrees Celsius were selected and randomly divided into 17 groups based on their temperatures. […] Each group was orally gavaged with the corresponding solvent or drug, and rectal temperature was measured at 1 h, 2 h, 3 h, 4 h, and 5 h after administration to calculate the temperature difference from baseline.
Male SD rats, weighing 180-220 g were fed adaptively for 1 week, with the environmental temperature maintained at 20-25° C. The rectal temperature of the rats was measured once daily at 10:00 am for two consecutive days to acclimate them to this procedure. The average of the two temperature measurements was taken as the baseline temperature. Rats with a temperature range of 37.0-38.6° C. and a fluctuation <0.5° C. were selected for the experiment. Each rat was subcutaneously injected with 10 ml/kg of a 20% suspension of dry yeast to induce fever. (Preparation method: 120 g of dry yeast was weighed and placed in a mortar, gradually adding distilled water to grind into a uniform suspension, and then adjusted to a volume of 600 mL, prepare this solution fresh.) Six hours after injecting the yeast suspension, the body temperature of the rats was measured. Ninety rats with a temperature increase ranging from 1.0 to 2.2 degrees Celsius were selected and randomly divided into 9 groups based on their temperatures. These groups were as follows: (1) Model group: administered distilled water, (2) 7 batches of traditional Chinese medicine groups P-V: dosage of 3.34 g crude drugs/kg, (3) Positive control group: administered aspirin suspension, dosage of 0.20 g/kg. Each group was orally gavaged with the corresponding solvent or drug, and rectal temperature was measured at 1 h, 2 h, 3 h, 4 h, and 5 h after administration to calculate the temperature difference from baseline.

As to `CC(=O)Oc1ccccc1C(=O)O` [Aspirin, aspirin], the “Temperature rise degrees after administration of medication (ΔT), 1 h” value (1 h after oral gavage) is on record as 0.40 ± 0.24 degrees. Further, the “Temperature rise degrees after administration of medication (ΔT), 2 h” value (2 h after oral gavage) was 0.34 ± 0.37 degrees. Also, the “Temperature rise degrees after administration of medication (ΔT), 3 h” value (3 h after oral gavage) is listed as 0.27 ± 0.28 degrees. Besides, the “Temperature rise degrees after administration of medication (ΔT), 4 h” value (4 h after oral gavage) is 0.22 ± 0.23 degrees. For the same molecule, under “5 h after oral gavage”, the “Temperature rise degrees after administration of medication (ΔT), 5 h” value was 0.22 ± 0.24 degrees. Further, the “Degrees of temperature rise after administration of medication (ΔT), 1 h” value (verification study, 1 h after oral gavage) stood at 0.42 ± 0.34 Degrees. Besides, the “Degrees of temperature rise after administration of medication (ΔT), 2 h” value (verification study, 2 h after oral gavage) is on record as 0.42 ± 0.31 Degrees. Moreover, the “Degrees of temperature rise after administration of medication (ΔT), 3 h” value (verification study, 3 h after oral gavage) is 0.34 ± 0.31 Degrees. For the same molecule, where the note is “verification study, 4 h after oral gavage”, the “Degrees of temperature rise after administration of medication (ΔT), 4 h” value turned out to be 0.23 ± 0.30 Degrees. The “Degrees of temperature rise after administration of medication (ΔT), 5 h” value (verification study, 5 h after oral gavage) was 0.17 ± 0.13 Degrees.
